The test system of data set [1] is mouse Colon 26 adenocarcinoma. In words: Antitumor activity on mouse Colon 26 adenocarcinoma (Application Example 1). The format is in vivo. As to conditions: for Tumor-disappeared mice: i.v., every 4th day, three times. On the procedure:
(§1) When the volume of the tumor reached around 100 mm^3, the block copolymer-drug complex pharmaceutical preparation synthesized in Example 3, 4 or 5 or adriamycin hydrochloride was intravenously administered once a day every 4th day in total of three times (indicated by arrows in the drawings) to examine their antitumor effects. […] Each dose was determined as the amount of adriamycin of the peak 1 of the HPLC chromatogram. The antitumor effects of each drug were estimated based on the tumor growth curve, the number of mice in which the tumor disappeared and the chemotherapeutic index. The results are shown in Tables 1 and 2 and FIGS. 16 and 17.

Data set [2] is described as follows: Drug concentration in tumor by radioactivity (Application Example 2). To be noted: mouse, iv, i.v., total of adriamycin and adriamycin dimer, 14C, read-out: % of dose/g (tumor). Format: in vivo, CDF1 female mouse.
Data set [3] can be described thus: Drug concentration in heart by radioactivity (Application Example 2). As to conditions: mouse, iv, i.v., total of adriamycin and adriamycin dimer, 14C, read-out: % of dose/g (heart). Format: in vivo, CDF1 female mouse.
Data set [4] is described as follows: Drug concentration in blood plasma by radioactivity (Application Example 2). As to conditions: for % of dose/ml (blood plasma): i.v., total of adriamycin and adriamycin dimer, 14C. How it is done: Colon 26 adenocarcinoma cells were transplanted subcutaneously in the subaxillary region of each CDF1 female mouse, to which the block copolymer-drug complex pharmaceutical preparation prepared in Example 6 or 7 or ^14 C-labeled adriamycin hydrochloride was intravenously administered 12 days after transplanting. Each drug was used by diluting it in physiological saline prior to its use. After 15 minutes and 1, 4, 24 and 48 hours of the administration, blood samples were collected and various organs were excised. The drug concentrations in the blood plasma and each internal organ were determined by measuring radioactivity thereof using a liquid scintillation counter. In this test, both adriamycin and adriamycin dimer are labeled with ^14 C.

The nature of data set [5]: LD50 for comparison of chemotherapeutic index (Table 2). As to conditions: mouse, in vivo, iv. On the procedure: as §1
Data set [6] deals with mouse Colon 26 adenocarcinoma. Put plainly: Antitumor activity on mouse Colon 26 adenocarcinoma (Application Example 3). The format is in vivo. As to conditions: i.v., every 4th day, three times. On the procedure:
In the case of the pharmaceutical preparation of Example 8, its effect obtained from the only first administration was also examined. […] Each dose was determined as the amount of adriamycin of the peak 1 of the HPLC chromatogram. The antitumor effects of each drug were estimated based on the tumor growth curve and the number of mice in which the tumor disappeared. The results are shown in Table 6 and FIGS. 25, 26 and 27.

Structures can show the parent of a compound that is named as a salt.

As usually defined, the LD50 is the dose expected to kill half of the subjects tested.

As for `COc1cccc2c1C(=O)c1c(O)c3c(c(O)c1C2=O)C[C@@](O)(C(=O)CO)C[C@@H]3O[C@H]1C[C@H](N)[C@H](O)[C@H](C)O1` [Adriamycin hydrochloride, adriamycin hydrochloride], the Tumor-disappeared mice in data set [1] (5 mg/kg) is reported as 0/5; in data set [1] (10 mg/kg), 2/5; in data set [6] (5 mg/kg), 0/5; in data set [6] (10 mg/kg) it was 2/5. Moreover, the “Min T/C42 (minimum dose when T/C (%) becomes 42% or less on the 14th day after the initial administration)” value in data set [1] (14th day after initial administration) is 5.95. Further, the “C. index (chemotherapeutic index: LD50/(Min T/C42))” value in data set [1] (LD50 /(Min T/C42)) amounted to 2.52. Further, the tissue uptake at 0.25 h in data set [2] (15 minutes) is 2.3 %ID/g; in data set [3] (15 minutes), 10.5 %ID/g. Further, the tissue uptake at 1 h in data set [2] (1 hour) turned out to be 2.4 %ID/g; in data set [3] (1 hour), 7 %ID/g. Besides, the tissue uptake at 4 h in data set [2] (4 hours) was 1.7 %ID/g; in data set [3] (4 hours) it was 4.6 %ID/g. The tissue uptake at 24 h turned out to be 1.3 %ID/g in data set [2] (24 hours) and 1.1 %ID/g in data set [3] (24 hours). Moreover, the results for the tissue uptake at 48 h in data set [2] (48 hours) and in data set [3] (48 hours) were 1 %ID/g and 0.5 %ID/g, respectively. The “% of dose/ml (blood plasma)” value in data set [4] (15 minutes) is listed as 0.47 % of dose/ml; in data set [4] (1 hour), 0.29 % of dose/ml; in data set [4] (4 hours) it was 0.36 % of dose/ml; in data set [4] (24 hours) it was 0.10 % of dose/ml; in data set [4] (48 hours), 0.07 % of dose/ml. Also, in data set [4] (mouse, in vivo), the “drug retention in blood plasma” value is listed as “quickly disappeared from blood plasma”. Moreover, the LD50 in data set [5] was 15 mg/kg.

(Values after patent US6080396A, “Anthracycline compound derivative and pharmaceutical preparation containing the same” (Japan Science and Technology Corporation, priority 1995, dated 2000).)
